Test results taken from patent US20250120922A1, “COMPOSITION FOR IMPROVING COW REPRODUCTIVE ABILITY” (SOLOMON CO., LTD., priority 2022, published 2025).
“And” between values parts separate entries of the source, which are not always exact repeats. Equal values may be shown once.

System: cows after calving
Assay: Effect of improving cow reproductive ability (first return to estrus after calving, composition mounted on the leash)
Assay type: in vivo
Settings: for First return to estrus day after calving: leash mounting type, 3 heads
Source text: The mixture was poured into a wax tray and completely hardened to prepare a composition for improving cow reproductive ability.
By using the composition prepared in Example 2, the effect of improving the cow reproductive ability was confirmed after being mounted on the leash of cows after calving. The first return to estrus after calving was generally known to be 60 to 90 days, and in the experiment, confirmed to be average 84.20±6.64 in the case of cow used as a control group.

Cc1ccc(O)cc1 [p-cresol]
First return to estrus day after calving (1% p-cresol in paraffin wax block): 46 ± 4 days | First return to estrus day after calving (5% p-cresol in paraffin wax block): 28 days and 28 ± 4 days | Return of estrus earlier than the earliest normal return time of estrus (approximately 45 days after calving) (5% p-cresol pheromone block): about 17 days
